Tested on: neural stem cells
Experiment: Effect of PACAP in lieu of forskolin in the TH cocktail on neural stem cell culture
Assay type: cell-based, mice
Settings: 2 nM PACAP versus 1 μM forskolin in the TH cocktail
Experimental: A control experiments using 1 μM forskolin and no PACAP was performed in parallel as a comparison.

With “pituitary adenylate cyclase activating polypeptide [PACAP]” the “effectiveness in the production of TH positive neurons” value was “more effective than forskolin”.

From patent US6844312B2, “Production of tyrosine hydroxylase positive neurons” (Stem Cell Therapeutics Inc., priority 2001, dated 2005)
